From ChEMBL document CHEMBL1138978, “Studies toward the discovery of the next generation of antidepressants. Part 5: 3,4-Dihydro-2H-benzo[1,4]oxazine derivatives with dual 5-HT1A receptor and serotonin transporter affinity” (Bioorg Med Chem Lett, 2006)

Molecular target: T1, Adrenergic receptor alpha-1 (Rattus norvegicus, UniProt P15823+P23944+P43140)
T1 sequence (P15823 whole entry): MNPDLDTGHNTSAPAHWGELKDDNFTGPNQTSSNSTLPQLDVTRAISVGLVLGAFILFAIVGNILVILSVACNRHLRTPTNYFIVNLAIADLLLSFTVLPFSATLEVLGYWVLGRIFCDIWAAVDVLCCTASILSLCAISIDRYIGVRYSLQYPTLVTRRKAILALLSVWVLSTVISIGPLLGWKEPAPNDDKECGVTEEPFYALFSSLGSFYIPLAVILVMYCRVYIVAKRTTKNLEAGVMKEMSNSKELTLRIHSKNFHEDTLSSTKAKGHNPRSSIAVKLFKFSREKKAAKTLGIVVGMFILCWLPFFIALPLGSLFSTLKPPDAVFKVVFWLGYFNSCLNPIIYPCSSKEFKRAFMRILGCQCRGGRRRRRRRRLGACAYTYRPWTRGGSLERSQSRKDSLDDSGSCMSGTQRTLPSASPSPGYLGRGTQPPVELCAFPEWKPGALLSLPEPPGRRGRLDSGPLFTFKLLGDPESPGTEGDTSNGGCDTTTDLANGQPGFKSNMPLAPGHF
T1 sequence (P23944 whole entry): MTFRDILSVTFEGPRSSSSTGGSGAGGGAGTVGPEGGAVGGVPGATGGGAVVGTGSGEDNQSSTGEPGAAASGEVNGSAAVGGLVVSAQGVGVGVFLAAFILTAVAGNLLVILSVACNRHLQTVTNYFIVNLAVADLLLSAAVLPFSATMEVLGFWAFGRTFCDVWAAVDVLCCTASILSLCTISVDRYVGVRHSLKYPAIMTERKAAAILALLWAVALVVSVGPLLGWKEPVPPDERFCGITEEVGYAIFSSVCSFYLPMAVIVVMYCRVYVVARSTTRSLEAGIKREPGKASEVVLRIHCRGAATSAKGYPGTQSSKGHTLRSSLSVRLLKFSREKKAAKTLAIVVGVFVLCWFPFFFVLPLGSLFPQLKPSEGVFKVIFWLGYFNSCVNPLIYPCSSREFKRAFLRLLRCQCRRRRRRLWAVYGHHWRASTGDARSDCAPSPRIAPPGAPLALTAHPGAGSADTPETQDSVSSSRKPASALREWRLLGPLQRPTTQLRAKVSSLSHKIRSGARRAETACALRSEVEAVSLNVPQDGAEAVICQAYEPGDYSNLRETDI
T1 sequence (P43140 whole entry): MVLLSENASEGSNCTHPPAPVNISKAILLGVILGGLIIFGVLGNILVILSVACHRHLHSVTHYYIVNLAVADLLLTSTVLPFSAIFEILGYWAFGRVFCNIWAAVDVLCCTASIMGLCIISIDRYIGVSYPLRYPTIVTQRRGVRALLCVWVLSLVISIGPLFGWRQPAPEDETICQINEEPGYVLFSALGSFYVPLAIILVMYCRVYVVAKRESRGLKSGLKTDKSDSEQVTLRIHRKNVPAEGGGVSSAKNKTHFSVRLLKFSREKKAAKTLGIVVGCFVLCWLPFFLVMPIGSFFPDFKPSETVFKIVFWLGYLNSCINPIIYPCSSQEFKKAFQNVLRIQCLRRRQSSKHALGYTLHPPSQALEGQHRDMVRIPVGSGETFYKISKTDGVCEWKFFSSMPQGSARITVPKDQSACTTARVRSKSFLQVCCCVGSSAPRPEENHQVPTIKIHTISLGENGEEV
Experiment: Displacement of [3H]prazosin from adrenergic alpha-1 receptor in rat cortical membrane
Type: cell membranes

Structure (SMILES) | Ki
CN1CC(CNCCc2c[nH]c3ccc(F)cc23)Oc2cc(Cl)ccc21 (centres undefined) | 607 nM
COc1cccc2c1OC(CNCCc1c[nH]c3ccc(F)cc13)CN2 (centres undefined) | 7.6 nM
Fc1ccc2[nH]cc(CCNCC3CNc4ccccc4O3)c2c1 (centres undefined) | 70 nM
COc1cccc2c1OC(CN1CC=C(c3c[nH]c4ccc(F)cc34)CC1)CN2 (centres undefined) | 14.5 nM
CCCN1CC(CNCCc2c[nH]c3ccccc23)Oc2ccccc21 (centres undefined) | 481 nM
COc1cccc2c1OC(CN1CC=C(c3c[nH]c4ccc(F)cc34)CC1)CN2C (centres undefined) | 96.5 nM
CCCN1CC(CN2CC=C(c3c[nH]c4ccc(F)cc34)CC2)Oc2c(OC)cccc21 (centres undefined) | 505.5 nM
CCN1CC(CN2CC=C(c3c[nH]c4ccc(F)cc34)CC2)Oc2c(OC)cccc21 (centres undefined) | 229 nM
COc1ccc2c(c1)OC(CNCCc1c[nH]c3ccc(F)cc13)CN2 (centres undefined) | 44.5 nM
C1=C(c2c[nH]c3ccccc23)CCN(CC2CNc3ccccc3O2)C1 (centres undefined) | 16.6 nM

Molecular target: Sodium-dependent serotonin transporter (Rattus norvegicus, UniProt P31652)
Sequence (P31652 whole entry): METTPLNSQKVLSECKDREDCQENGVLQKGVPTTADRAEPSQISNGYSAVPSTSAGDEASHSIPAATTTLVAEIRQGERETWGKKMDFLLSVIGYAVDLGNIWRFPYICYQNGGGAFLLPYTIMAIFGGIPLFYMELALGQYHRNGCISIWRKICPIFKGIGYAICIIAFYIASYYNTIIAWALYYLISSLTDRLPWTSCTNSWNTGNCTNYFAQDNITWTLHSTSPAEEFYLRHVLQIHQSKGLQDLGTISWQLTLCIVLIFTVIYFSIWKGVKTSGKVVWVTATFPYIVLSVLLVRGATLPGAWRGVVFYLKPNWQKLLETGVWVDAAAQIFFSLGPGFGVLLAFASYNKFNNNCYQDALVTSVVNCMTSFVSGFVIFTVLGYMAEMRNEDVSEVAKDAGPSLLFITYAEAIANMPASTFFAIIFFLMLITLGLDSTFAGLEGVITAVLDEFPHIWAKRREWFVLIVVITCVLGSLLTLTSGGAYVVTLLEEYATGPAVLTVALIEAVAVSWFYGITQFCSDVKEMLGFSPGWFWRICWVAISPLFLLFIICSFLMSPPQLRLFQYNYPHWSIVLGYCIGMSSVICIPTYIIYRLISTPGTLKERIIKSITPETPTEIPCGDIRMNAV
Experiment: Displacement of [3H]paroxetine from rat cortical 5-HT reuptake

Structure (SMILES) | Ki
CCN1CC(CNCCc2c[nH]c3ccc(F)cc23)Oc2ccccc21 (centres undefined) | 15.3 nM
CN1CC(CNCCc2c[nH]c3ccc(F)cc23)Oc2cc(Cl)ccc21 (centres undefined) | 42.6 nM
COc1cccc2c1OC(CNCCc1c[nH]c3ccc(F)cc13)CN2 (centres undefined) | 3.13 nM
Fc1ccc2[nH]cc(CCNCC3CNc4ccccc4O3)c2c1 (centres undefined) | 16 nM
COc1cccc2c1OC(CN1CC=C(c3c[nH]c4ccc(F)cc34)CC1)CN2 (centres undefined) | 6.94 nM
CCCN1CC(CNCCc2c[nH]c3ccccc23)Oc2ccccc21 (centres undefined) | 22.7 nM
COc1cccc2c1OC(CN1CC=C(c3c[nH]c4ccc(F)cc34)CC1)CN2C (centres undefined) | 12.6 nM
CCCN1CC(CN2CC=C(c3c[nH]c4ccc(F)cc34)CC2)Oc2c(OC)cccc21 (centres undefined) | 22.6 nM
CCN1CC(CN2CC=C(c3c[nH]c4ccc(F)cc34)CC2)Oc2c(OC)cccc21 (centres undefined) | 13.2 nM
COc1ccc2c(c1)OC(CNCCc1c[nH]c3ccc(F)cc13)CN2 (centres undefined) | 11.7 nM
C1=C(c2c[nH]c3ccccc23)CCN(CC2CNc3ccccc3O2)C1 (centres undefined) | 8.37 nM

Molecular target: T2, 5-hydroxytryptamine receptor 1A (Homo sapiens) (UniProt P08908)
T2 sequence (whole entry): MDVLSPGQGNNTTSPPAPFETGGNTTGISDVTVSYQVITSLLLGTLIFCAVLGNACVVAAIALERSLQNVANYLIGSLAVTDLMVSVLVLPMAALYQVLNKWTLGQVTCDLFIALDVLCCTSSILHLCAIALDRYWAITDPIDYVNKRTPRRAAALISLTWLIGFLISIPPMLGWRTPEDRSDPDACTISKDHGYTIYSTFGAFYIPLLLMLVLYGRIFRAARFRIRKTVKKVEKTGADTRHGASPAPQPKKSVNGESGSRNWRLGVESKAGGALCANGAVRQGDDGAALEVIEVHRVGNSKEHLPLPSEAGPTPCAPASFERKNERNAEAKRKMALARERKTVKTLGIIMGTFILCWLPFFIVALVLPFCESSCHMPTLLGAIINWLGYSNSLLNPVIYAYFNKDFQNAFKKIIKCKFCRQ
Experiment: Agonist activity assessed by stimulation of [35S]GTPgammaS binding in CHO cells expressing 5HT1A receptor relative to 5HT
Type: functional, cell-based

Structure (SMILES) | Emax
CCN1CC(CNCCc2c[nH]c3ccc(F)cc23)Oc2ccccc21 (centres undefined) | 100%
CN1CC(CNCCc2c[nH]c3ccc(F)cc23)Oc2cc(Cl)ccc21 (centres undefined) | 64%
COc1cccc2c1OC(CNCCc1c[nH]c3ccc(F)cc13)CN2 (centres undefined) | 66%
Fc1ccc2[nH]cc(CCNCC3CNc4ccccc4O3)c2c1 (centres undefined) | 100%
COc1cccc2c1OC(CN1CC=C(c3c[nH]c4ccc(F)cc34)CC1)CN2 (centres undefined) | 35%
CCCN1CC(CNCCc2c[nH]c3ccccc23)Oc2ccccc21 (centres undefined) | 100%
COc1cccc2c1OC(CN1CC=C(c3c[nH]c4ccc(F)cc34)CC1)CN2C (centres undefined) | 93%
CCCN1CC(CN2CC=C(c3c[nH]c4ccc(F)cc34)CC2)Oc2c(OC)cccc21 (centres undefined) | 92%
CCN1CC(CN2CC=C(c3c[nH]c4ccc(F)cc34)CC2)Oc2c(OC)cccc21 (centres undefined) | 54%
COc1ccc2c(c1)OC(CNCCc1c[nH]c3ccc(F)cc13)CN2 (centres undefined) | 56%
C1=C(c2c[nH]c3ccccc23)CCN(CC2CNc3ccccc3O2)C1 (centres undefined) | 62%

Molecular target: T3, 5-hydroxytryptamine receptor 1A (Homo sapiens, UniProt P08908)
T3 sequence (P08908 whole entry): T2 sequence (whole entry)
Experiment: Intrinsic activity assessed by stimulation of [35S]GTP-gamma-S binding in CHO cells expressing 5HT1A receptor
Type: functional, cell-based

Structure (SMILES) | EC50
CCN1CC(CNCCc2c[nH]c3ccc(F)cc23)Oc2ccccc21 (centres undefined) | 90 nM
CN1CC(CNCCc2c[nH]c3ccc(F)cc23)Oc2cc(Cl)ccc21 (centres undefined) | 336 nM
COc1cccc2c1OC(CNCCc1c[nH]c3ccc(F)cc13)CN2 (centres undefined) | 52.2 nM
Fc1ccc2[nH]cc(CCNCC3CNc4ccccc4O3)c2c1 (centres undefined) | 155 nM
COc1cccc2c1OC(CN1CC=C(c3c[nH]c4ccc(F)cc34)CC1)CN2 (centres undefined) | 386 nM
CCCN1CC(CNCCc2c[nH]c3ccccc23)Oc2ccccc21 (centres undefined) | 196 nM
COc1cccc2c1OC(CN1CC=C(c3c[nH]c4ccc(F)cc34)CC1)CN2C (centres undefined) | 190 nM
CCCN1CC(CN2CC=C(c3c[nH]c4ccc(F)cc34)CC2)Oc2c(OC)cccc21 (centres undefined) | 135 nM
CCN1CC(CN2CC=C(c3c[nH]c4ccc(F)cc34)CC2)Oc2c(OC)cccc21 (centres undefined) | 418 nM
COc1ccc2c(c1)OC(CNCCc1c[nH]c3ccc(F)cc13)CN2 (centres undefined) | 181 nM
C1=C(c2c[nH]c3ccccc23)CCN(CC2CNc3ccccc3O2)C1 (centres undefined) | 1130 nM

Molecular target: T3, 5-hydroxytryptamine receptor 1A
Experiment: Displacement of [3H]8-OH-DPAT from 5HT1A receptor expressed in CHO cells
Type: cell-based

Ki | Structure (SMILES)
75.2 nM | CN1CC(CNCCc2c[nH]c3ccc(F)cc23)Oc2cc(Cl)ccc21 (centres undefined)
9.31 nM | COc1cccc2c1OC(CNCCc1c[nH]c3ccc(F)cc13)CN2 (centres undefined)
11 nM | Fc1ccc2[nH]cc(CCNCC3CNc4ccccc4O3)c2c1 (centres undefined)
12.8 nM | CCCN1CC(CNCCc2c[nH]c3ccccc23)Oc2ccccc21 (centres undefined)
103 nM | COc1ccc2c(c1)OC(CNCCc1c[nH]c3ccc(F)cc13)CN2 (centres undefined)

Structure (SMILES) | Ki
CCN1CC(CNCCc2c[nH]c3ccc(F)cc23)Oc2ccccc21 (centres undefined) | 15.3 nM
